Data reported in patent publication US12415785B2, “Compound modulators of sting” (CTXT PTY LTD, priority 2019, dated 2025).

Columns and labels:
human STING (WT) = human STING (WT) (Homo sapiens (Human), UniProt Q86WV6, H232R); test: Surface plasmon resonance (SPR), STING (WT); assay type: binding; conditions: biotinylated STING on streptavidin chip, 8° C.
Protocol: Biophysical experiments were performed with three different recombinant human STING protein variants designated according to allelic nomenclature of Yi et al., (2013). Codon optimized DNA sequences (for expression in Escherichia coli) encoding amino acid residues 149 to 345 (Swiss Prot Q86WV6) of human STING (WT), human STING (HAQ) and human STING (R232H) were synthesised by GenScript USA Inc (Piscataway, New Jersey, USA). These were ligated into a modified pET43a E. coli expression vector designed to encode N-terminal His tag followed by tobacco etch virus protease (TEV) cleavage site and a STING gene sequence. The resulting protein sequences for the three allelic variants are listed below:
Binding interactions of ligands with STING proteins were quantified using Surface Plasmon Resonance (SPR) with a minimally biotinylated STING protein immobilized on a streptavidin chip surface. […] Minimal biotinylation of purified huSTING proteins was performed using a previously described methodology (Chhabra 2012). Briefly, approximately 20 nmol of recombinant STING protein in 1×TBS buffer (25 mM Tris-HCl, pH 7.5, 150 mM NaCl, 5 mM DTT) was mixed with of EZ-Link™ Sulfo-NHS-LC-LC-Biotin (Thermofisher Scientific, cat #21338) at a molar ratio of 1 to 0.6 and incubated on ice for 2 hours. To remove any unreacted biotin reagent, protein/biotin mixture was passed through a Superdex 75 (10/300 GL) column equilibrated with 10 mM HEPES, pH7.4, 150 mM NaCl, 5 mM DTT, 5%[v/v] glycerol. A protein peak containing biotinylated huSTING protein was collected and stored in aliquots at −80° C.
Streptavidin was simultaneously immobilized in all four channels of a CM5 sensor chip docked in a Biacore instrument (either Biacore S200 or Biacore T200, GE Healthcare) as described previously (Zender 2013). Minimally biotinylated STING protein was captured onto a streptavidin coated chip surface at 8° C. in SPR binding buffer (50 mM HEPES, pH 7.4, 150 mM NaCl, 2%[v/v] DMSO) by gradually injecting in a single channel at a constant flow-rate of 2 μL/min until desired capture level was achieved, typically 3000 to 7000 RU (1 RU=1 pg/mm^2).
All binding experiments were performed at 8° C. in SPR binding buffer. To determine binding affinity, compound interaction with immobilized STING protein was analysed using dose-response experiments. Fresh 10 mM DMSO solutions of compound were diluted directly into SPR binding buffer typically to a concentration of 50 μM and then further diluted 2-fold or 3-fold aiming for either a 5- or 7-point concentration series range. Each ligand concentration series was injected at a constant flow rate of 60 μL/min with a 90 second association and a 180 second dissociation time. These were modified for compounds with longer residence times, so that curves could reach steady-state, or so that compound would be fully dissociated before the subsequent injection.
Scrubber 2 (www.biologic.com.au) was utilized for data processing, where signals were referenced against the blank surface (streptavidin+D-biotin) and further corrected for DMSO refractive index change and then “double-referenced” using a buffer-blank injection (Papalia 2006). Responses were fitted to either a 1:1 steady-state affinity model or a 1:1 kinetic model (that included a mass-transport component), available within Scrubber.

[1] = molecular target: WT human STING isoform (THP-1-Dual KI-hSTING-R232 cells) (Homo sapiens (Human), UniProt Q86WV6, H232R); test: THP-1-Dual KI-hSTING-R232 reporter cell line assay; assay type: cell-based; conditions: 24 h incubation, QUANTI-Luc luminescence
Protocol: (§1) THP-1 STING Lucia ISG cells (InvivoGen #thpI-isg) were cultured in RPMI-1640 containing 2 mM L-glutamine, 25 mM HEPES, 100 μg/mL Normocin (InvivoGen) and 10% heat-inactivated FBS. Cells were seeded at a density of 7×10^5 cells/mL, maintained at 37° C./5% CO2, and passaged every 3-4 days. Selection pressure was maintained by the addition of 100 μg/mL Zeocin every second passage.
(§2) Assay conditions: cells were harvested and resuspended at a concentration of 5×10^5 cells/mL in fresh growth media. Of this cell preparation 20 μL per well was dispensed into 384 well cell culture plates (Greiner, #781098X) and incubated at 37° C./5% CO2 for 2 hours. Concentration Response Curves (commonly 11 doses) were prepared by 2.5 fold serial dilution starting from 10 mM compound stock solution in DMSO. Compound dilutions were transferred into the cell culture plates using a pintool (0.1 μL transfer), control wells were matched for DMSO. Positive control wells received ML RR—S2 CDA (Med Chem Express HY12885B) in 5 μL of media to a final concentration of 40 μM. All other wells received additional 5 μL of media only to equalise volume. The plates were incubated for 24 h at 37° C./5% CO2.
(§3) For the detection step, QUANTI-Luc (InvivoGen #rep-qlc1) was prepared according to manufacturer's instruction and 10 μL were added per well to the culture plates. Plates were shaken for ten seconds on an orbital shaker and left in the dark at room temperature for two minutes, before luminescence was read on a Perkin Elmer Envision plate reader.
(§4) Data analysis: Luminescence raw data was normalised % activity relative to the signal of the positive control wells and negative control wells which were not treated with compound. The following formula was used to calculate normalised % activity from raw signals: % activity=(sample−negative)/(positive−negative)
(§5) The THP-1 STING Lucia ISG cell EC50 provides an assessment of activity at the human HAQ isoform of STING. For assessing compound activity against the WT human STING isoform, an equivalent method was conducted where the cells used were THP-1-Dual KI-hSTING-R232 (InvivoGen #thpd-r232).

[2] = molecular target: human HAQ isoform of STING (THP-1 STING Lucia ISG cells) (Homo sapiens (Human), UniProt Q86WV6, G230A/H232R/R293Q/R71H); test: THP-1 STING Lucia ISG reporter cell line assay; assay type: cell-based; conditions: 24 h incubation, QUANTI-Luc luminescence
Protocol: as §1, §2, §3, §4, §5

Chain of human HAQ isoform of STING (THP-1 STING Lucia ISG cells) (Q86WV6 whole entry R71H/G230A/H232R/R293Q, canonical isoform): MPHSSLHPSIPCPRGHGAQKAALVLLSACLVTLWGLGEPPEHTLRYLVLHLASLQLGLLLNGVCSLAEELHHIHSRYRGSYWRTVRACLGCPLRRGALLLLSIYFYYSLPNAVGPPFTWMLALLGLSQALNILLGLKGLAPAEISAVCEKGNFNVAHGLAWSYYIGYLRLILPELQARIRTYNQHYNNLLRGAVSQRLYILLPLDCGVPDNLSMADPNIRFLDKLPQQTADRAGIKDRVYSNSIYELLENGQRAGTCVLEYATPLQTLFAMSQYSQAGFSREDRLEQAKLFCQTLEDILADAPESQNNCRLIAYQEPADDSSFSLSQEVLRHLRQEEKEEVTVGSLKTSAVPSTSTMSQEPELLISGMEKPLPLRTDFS
Chain of WT human STING isoform (THP-1-Dual KI-hSTING-R232 cells) (Q86WV6 whole entry H232R, canonical isoform): as the sequence (Q86WV6 whole entry R71H/G230A/H232R/R293Q, canonical isoform) above, with H71R, A230G, Q293R counted along it
Chain of human STING (WT) (Q86WV6 other isoform, or with tags, fused parts or gaps, stated change not applied): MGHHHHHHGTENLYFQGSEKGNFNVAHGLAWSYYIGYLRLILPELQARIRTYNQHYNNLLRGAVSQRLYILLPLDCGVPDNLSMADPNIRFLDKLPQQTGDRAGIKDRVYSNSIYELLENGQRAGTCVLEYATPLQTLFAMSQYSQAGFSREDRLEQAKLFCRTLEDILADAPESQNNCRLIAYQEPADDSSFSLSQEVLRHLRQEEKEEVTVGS

SMILES | Kd (human STING (WT)) [µM] | EC50 [1] [µM] | EC50 [2] [µM]
COc1c(C(N)=O)ccc2c1nc(-c1ccc(Cl)cc1-c1cn[nH]n1)n2CCn1c(-c2ccc(Cl)cc2-c2cn[nH]n2)nc2c(OC)c(C(N)=O)ccc21 [Example 24, 1,1′-(Ethane-1,2-diyl)bis(2-(4-chloro-2-(2H-1,2,3-triazol-4-yl)phenyl)-4-methoxy-1H-benzo[d]imidazole-5-carboxamide)] | 102 | 4.19 | 2.67
CCc1ccc(-c2nc3c(OC)c(C(N)=O)ccc3n2CCn2c(-c3ccc(CC)cc3C(=O)O)nc3c(OC)c(C(N)=O)ccc32)c(C(=O)O)c1 [Example 33, 6,6′-(Ethane-1,2-diylbis(5-carbamoyl-4-methoxy-1H-benzo[d]imidazole-1,2-diyl))bis(3-ethylbenzoic acid)] | 107 | > 40 | > 40
COc1c(C(N)=O)ccc2c1nc(-c1cc(F)c(F)cc1C(=O)O)n2CCn1c(-c2cc(F)c(F)cc2C(=O)O)nc2c(OC)c(C(N)=O)ccc21 [Example 15, 6,6′-(Ethane-1,2-diylbis(5-carbamoyl-4-methoxy-1H-benzo[d]imidazole-1,2-diyl))bis(3,4-difluorobenzoic acid)] | 1000 | 2.46 | 2.56
COc1c(C(N)=O)ccc2c1nc(-c1ccc(Cl)cc1-c1noc(=O)[nH]1)n2CCn1c(-c2ccc(Cl)cc2-c2noc(=O)[nH]2)nc2c(OC)c(C(N)=O)ccc21 [Example 32, 1,1′-(Ethane-1,2-diyl)bis(2-(4-chloro-2-(5-oxo-4,5-dihydro-1,2,4-oxadiazol-3-yl)phenyl)-4-methoxy-1H-benzo[d]imidazole-5-carboxamide)] | > 80 | 29.7 | > 40
COc1c(C(N)=O)cc(F)c2c1nc(-c1ccc(Cl)cc1C(=O)O)n2CCn1c(-c2ccc(Cl)cc2C(=O)O)nc2c(OC)c(C(N)=O)cc(F)c21 [Example 20, 6,6′-(Ethane-1,2-diylbis(5-carbamoyl-7-fluoro-4-methoxy-1H-benzo[d]imidazole-1,2-diyl))bis(3-chlorobenzoic acid)] | 96 | 2.78 | 1.3
COc1c(C(N)=O)ccc2c1nc(-c1ccccc1C(=O)O)n2CCn1c(-c2ccccc2C(=O)O)nc2c(OC)c(C(N)=O)ccc21 [Example 4, 2,2′-(Ethane-1,2-diylbis(5-carbamoyl-4-methoxy-1H-benzo[d]imidazole-1,2-diyl))dibenzoic acid] | > 10 | 32.5 | 15.9
COc1c(C(N)=O)ccc2c1nc(-c1ccc(Cl)cc1C(=O)O)n2CCCn1c(-c2ccc(Cl)cc2C(=O)O)nc2c(OC)c(C(N)=O)ccc21 [Example 35, 6,6′-(Propane-1,3-diylbis(5-carbamoyl-4-methoxy-1H-benzo[d]imidazole-1,2-diyl))bis(3-chlorobenzoic acid)] | > 100 | > 40 | > 40
COc1ccc(-c2nc3c(OC)c(C(N)=O)ccc3n2CCn2c(-c3ccc(OC)cc3C(=O)O)nc3c(OC)c(C(N)=O)ccc32)c(C(=O)O)c1 [Example 41, 6,6′-(Ethane-1,2-diylbis(5-carbamoyl-4-methoxy-1H-benzo[d]imidazole-1,2-diyl))bis(3-methoxybenzoic acid)] | 200 | > 40 | > 40
COc1c(C(N)=O)ccc2c1nc(-c1cccc(Cl)c1-c1nn[nH]n1)n2CCn1c(-c2cccc(Cl)c2-c2nn[nH]n2)nc2c(OC)c(C(N)=O)ccc21 [Example 40, 1,1′-(Ethane-1,2-diyl)bis(2-(3-chloro-2-(2H-tetrazol-5-yl)phenyl)-4-methoxy-1H-benzo[d]imidazole-5-carboxamide)] | 180 | > 40 | > 40
COc1c(C(N)=O)ccc2c1nc(-c1cc(C)ccc1C(=O)O)n2CCn1c(-c2cc(C)ccc2C(=O)O)nc2c(OC)c(C(N)=O)ccc21 [Example 26, 2,2′-(Ethane-1,2-diylbis(5-carbamoyl-4-methoxy-1H-benzo[d]imidazole-1,2-diyl))bis(4-methylbenzoic acid)] | > 40 | 3.22 | 3.38

More lines, in order of falling Kd (human STING (WT)), values ahead:

Kd (human STING (WT)) [µM] | EC50 [1] [µM] | EC50 [2] [µM] | SMILES
80 | > 40 | > 40 | NC(=O)c1ccc2c(c1)nc(-c1ccccc1C(=O)O)n2CCn1c(-c2ccccc2C(=O)O)nc2cc(C(N)=O)ccc21 [Example 2, 2,2′-(Ethane-1,2-diylbis(5-carbamoyl-1H-benzo[d]imidazole-1,2-diyl))dibenzoic acid]
33 | 9.85 | 18.4 | NC(=O)c1ccc2c(c1)nc(-c1c(Br)cccc1C(=O)O)n2CCn1c(-c2c(Br)cccc2C(=O)O)nc2cc(C(N)=O)ccc21 (single isomer, unassigned) [Example 29.1, 2,2′-(Ethane-1,2-diylbis(5-carbamoyl-1H-benzo[d]imidazole-1,2-diyl))bis(3-bromobenzoic acid)]
2.01 | 0.566 | 0.326 | COc1c(C(N)=O)cc(F)c2c1nc(-c1c(F)cc(F)cc1C(=O)O)n2CCn1c(-c2c(F)cc(F)cc2C(=O)O)nc2c(OC)c(C(N)=O)cc(F)c21 [Example 18, 2,2′-(Ethane-1,2-diylbis(5-carbamoyl-7-fluoro-4-methoxy-1H-benzo[d]imidazole-1,2-diyl))bis(3,5-difluorobenzoic acid)]
0.077 | 1.45 | 1.53 | COc1c(C(N)=O)ccc2c1nc(-c1c(Cl)cccc1C(=O)O)n2CCn1c(-c2c(Cl)cccc2C(=O)O)nc2c(OC)c(C(N)=O)ccc21 (racemic) [Example 22, 2,2′-(Ethane-1,2-diylbis(5-carbamoyl-4-methoxy-1H-benzo[d]imidazole-1,2-diyl))bis(3-chlorobenzoic acid)]
0.034 | 0.232 | 0.297 | COc1c(C(N)=O)ccc2c1nc(-c1c(I)cccc1C(=O)O)n2CCn1c(-c2c(I)cccc2C(=O)O)nc2c(OC)c(C(N)=O)ccc21 (single isomer, unassigned) [Example 19.1, 2,2′-(Ethane-1,2-diylbis(5-carbamoyl-4-methoxy-1H-benzo[d]imidazole-1,2-diyl))bis(3-iodobenzoic acid)]
